Results as given in US9144239B2, “Macrocyclic picolinamides as fungicides” (DOW AGROSCIENCES LLC, priority 2012, dated 2015).

Key:
Type in all cases: in vivo
Cercospora beticola = assay: Fungicidal activity: leaf spot of sugar beets (CERCBE); details: 24 h, 1 Day Protectant, sugar beet, read-out: Disease Control CERCBE 1DP
Protocol: Technical grades of materials were dissolved in acetone, which were then mixed with nine volumes of water containing 110 ppm Triton X-100. The fungicide solutions were applied onto wheat seedlings using an automated booth sprayer to run-off. All sprayed plants were allowed to air dry prior to further handling. Wheat plants (variety Yuma) were grown from seed in a greenhouse in 50% mineral soil/50% soil-less Metro mix until the first leaf was fully emerged, with 7-10 seedlings per pot. These plants were inoculated with an aqueous spore suspension of Septoria tritici either prior to or after fungicide treatments. After inoculation the plants were kept in 100% relative humidity (one day in a dark dew chamber followed by two to three days in a lighted dew chamber at 20° C.) to permit spores to germinate and infect the leaf. The plants were then transferred to a greenhouse set at 20° C. for disease to develop. When disease symptoms were fully expressed on the 1st leaves of untreated plants, infection levels were assessed on a scale of 0 to 100 percent disease severity. Percent disease control was calculated using the ratio of disease severity on treated plants relative to untreated plants. Evaluation of Fungicidal Activity: Leaf Spot of Sugar Beets (Cercospora beticola; Bayer Code CERCBE) Sugar beet plants (variety HH88) were grown in soil-less Metro mix and trimmed regularly to maintain a uniform plant size prior to test. Plants were inoculated with a spore suspension 24 hr after fungicide treatments. Inoculated plants were kept in a dew chamber at 22° C. for 48 hr then incubated in a greenhouse set at 24° C. under a clear plastic hood with bottom ventilation until disease symptoms were fully expressed. Fungicide formulation, application and disease assessment on the sprayed leaves followed the procedures as described in the Example A.

[1] = test system: Blumeria graminis f.sp. hordei; synonym: Erysiphe graminis f.sp. hordei; assay: Fungicidal activity: barley powdery mildew (ERYSGH); details: 24 h, 1 Day Protectant, read-out: Disease Control ERYSGH 1DP
Protocol: Technical grades of materials were dissolved in acetone, which were then mixed with nine volumes of water containing 110 ppm Triton X-100. The fungicide solutions were applied onto wheat seedlings using an automated booth sprayer to run-off. All sprayed plants were allowed to air dry prior to further handling. Wheat plants (variety Yuma) were grown from seed in a greenhouse in 50% mineral soil/50% soil-less Metro mix until the first leaf was fully emerged, with 7-10 seedlings per pot. These plants were inoculated with an aqueous spore suspension of Septoria tritici either prior to or after fungicide treatments. After inoculation the plants were kept in 100% relative humidity (one day in a dark dew chamber followed by two to three days in a lighted dew chamber at 20° C.) to permit spores to germinate and infect the leaf. The plants were then transferred to a greenhouse set at 20° C. for disease to develop. When disease symptoms were fully expressed on the 1st leaves of untreated plants, infection levels were assessed on a scale of 0 to 100 percent disease severity. Percent disease control was calculated using the ratio of disease severity on treated plants relative to untreated plants. Evaluation of Fungicidal Activity: Barley Powdery Mildew (Blumeria graminis f.sp. hordei; Synonym: Erysiphe graminis f.sp. hordei; Bayer Code […]) Barley seedlings (variety Harrington) were propagated in soil-less Metro mix, with each pot having 8 to 12 plants, and used in the test when first leaf was fully emerged. Test plants were inoculated by dusting with infected stock plants 24 hr after fungicide treatments. After inoculation the plants were kept in a greenhouse set at 20° C. for disease to develop. Fungicide formulation, application and disease assessment on the sprayed leaves followed the procedures as described in the Example A.

Uncinula necator = assay: Fungicidal activity: grape powdery mildew (UNCINE); details: Erysiphe necator, 24 h, 1 Day Protectant, read-out: Disease Control UNCINE 1 DP
Protocol: Technical grades of materials were dissolved in acetone, which were then mixed with nine volumes of water containing 110 ppm Triton X-100. The fungicide solutions were applied onto wheat seedlings using an automated booth sprayer to run-off. All sprayed plants were allowed to air dry prior to further handling. Wheat plants (variety Yuma) were grown from seed in a greenhouse in 50% mineral soil/50% soil-less Metro mix until the first leaf was fully emerged, with 7-10 seedlings per pot. These plants were inoculated with an aqueous spore suspension of Septoria tritici either prior to or after fungicide treatments. After inoculation the plants were kept in 100% relative humidity (one day in a dark dew chamber followed by two to three days in a lighted dew chamber at 20° C.) to permit spores to germinate and infect the leaf. The plants were then transferred to a greenhouse set at 20° C. for disease to develop. When disease symptoms were fully expressed on the 1st leaves of untreated plants, infection levels were assessed on a scale of 0 to 100 percent disease severity. Percent disease control was calculated using the ratio of disease severity on treated plants relative to untreated plants. Evaluation of Fungicidal Activity: Grape Powdery Mildew (Uncinula necator; Bayer Code […]) Grape seedlings (variety Carignane) were grown in soil-less Metro mix, with one plant per pot, and used in the test when approximately one month old. Plants were inoculated 24 hr after fungicide treatment by shaking spores from infected leaves over test plants. Plants were maintained in a greenhouse set at 20° C. until disease was fully developed. Fungicide formulation, application and disease assessment on the sprayed leaves followed the procedures as described in the Example A.

[2] = test system: Glomerella lagenarium; anamorph: Colletotrichum lagenarium; assay: Fungicidal activity: cucumber anthracnose (COLLLA); details: Colletotrichum orbiculare, 24 h, 1 Day Protectant, read-out: Disease Control COLLLA 1DP
Protocol: Technical grades of materials were dissolved in acetone, which were then mixed with nine volumes of water containing 110 ppm Triton X-100. The fungicide solutions were applied onto wheat seedlings using an automated booth sprayer to run-off. All sprayed plants were allowed to air dry prior to further handling. Wheat plants (variety Yuma) were grown from seed in a greenhouse in 50% mineral soil/50% soil-less Metro mix until the first leaf was fully emerged, with 7-10 seedlings per pot. These plants were inoculated with an aqueous spore suspension of Septoria tritici either prior to or after fungicide treatments. After inoculation the plants were kept in 100% relative humidity (one day in a dark dew chamber followed by two to three days in a lighted dew chamber at 20° C.) to permit spores to germinate and infect the leaf. The plants were then transferred to a greenhouse set at 20° C. for disease to develop. When disease symptoms were fully expressed on the 1st leaves of untreated plants, infection levels were assessed on a scale of 0 to 100 percent disease severity. Percent disease control was calculated using the ratio of disease severity on treated plants relative to untreated plants. Evaluation of Fungicidal Activity: Cucumber Anthracnose (Glomerella lagenarium; Anamorph: Colletotrichum lagenarium; Bayer Code COLLLA) Cucumber seedlings (variety Bush Pickle) were propagated in soil-less Metro mix, with each pot having one plant, and used in the test when 12 to 14 days old. Test plants were inoculated with an aqueous spore suspension of Colletotrichum lagenarium 24 hr after fungicide treatments. After inoculation the plants were kept in a dew room at 22° C. with 100% relative humidity for 48 hr to permit spores to germinate and infect the leaf. The plants were then transferred to a growth room set at 22° C. for disease to develop. Fungicide formulation, application and disease assessment on the sprayed leaves followed the procedures as described in the Example A.

Compound	pest or weed control at 100 ppm (Cercospora beticola) [%]	pest or weed control at 100 ppm [1] [%]	pest or weed control at 100 ppm (Uncinula necator) [%]	pest or weed control at 100 ppm [2] [%]
COc1ccnc(C(=O)N[C@H]2COC[C@H](OCC(C)C)[C@@H](OCC(C)C)[C@H](C)OC2=O)c1OCOC(=O)C(C)C [Compound 2]	0 to 80	80 to 100		
COc1ccnc(C(=O)N[C@H]2COC[C@H](OCC(C)C)[C@@H](OCC(C)C)[C@H](C)OC2=O)c1OCOC(C)=O [Compound 3, (2-((3S,7S,8S,9S)-7,8-diisobutoxy-9-methyl-2-oxo-1,5-dioxonan-3-ylcarbamoyl)-4-methoxypyridin-3-yloxy)methyl]	80 to 100	80 to 100	80 to 100	80 to 100
COc1ccnc(C(=O)NC2COC[C@H](OCc3ccccc3)[C@@H](OCc3ccccc3)[C@H](C)OC2=O)c1OCOC(C)=O (some centres unmarked) [Compound 12]	80 to 100	0 to 80	0 to 80	80 to 100
CCCCO[C@H]1COC[C@H](NC(=O)c2nccc(OC)c2OCOC(C)=O)C(=O)O[C@@H](C)[C@@H]1OCCOC [Compound 54]	0 to 80	0 to 80	0 to 80	80 to 100
CCCCO[C@H]1COC[C@H](NC(=O)c2nccc(OC)c2OCOC(C)=O)C(=O)O[C@@H](C)[C@@H]1OCC(F)F [Compound 55]	80 to 100		0 to 80	80 to 100
COc1ccnc(C(=O)N[C@H]2COC[C@H](OC(=O)C(C)C)[C@@H](OC(=O)C(C)C)[C@H](C)OC2=O)c1OCOC(C)=O [Compound 57]	80 to 100	0 to 80	0 to 80	80 to 100
COc1ccnc(C(=O)N[C@H]2COC[C@H](OCCCc3ccccc3)[C@@H](OCCCc3ccccc3)[C@H](C)OC2=O)c1OCOC(C)=O [Compound 60]	80 to 100			80 to 100
COc1ccnc(C(=O)N[C@H]2COC[C@H](OC)[C@@H](OC)[C@H](C)OC2=O)c1OCOC(C)=O [Compound 65]	0 to 80		0 to 80	0 to 80
COc1ccnc(C(=O)N[C@H]2COC[C@H](OCCCC(F)(F)F)[C@@H](OCCCC(F)(F)F)[C@H](C)OC2=O)c1OCOC(C)=O [Compound 68]	80 to 100	0 to 80	0 to 80	80 to 100
COc1ccnc(C(=O)N[C@H]2COC[C@H](OCC(C)C)[C@@H](OC3CCCCC3)[C@H](C)OC2=O)c1OCOC(C)=O [Compound 77]	80 to 100	0 to 80	80 to 100	80 to 100
CCC(C)(C)O[C@H]1COC[C@H](NC(=O)c2nccc(OC)c2OCOC(C)=O)C(=O)O[C@@H](C)[C@@H]1OCC(C)C [Compound 78]	0 to 80	0 to 80	80 to 100	80 to 100
COc1ccnc(C(=O)N[C@H]2COC[C@H](Oc3ccccc3)[C@@H](Oc3ccccc3)[C@H](C)OC2=O)c1OCOC(C)=O [Compound 84]	80 to 100	0 to 80	0 to 80	80 to 100
COc1ccnc(C(=O)N[C@H]2COC[C@H](OCC(C)C)[C@@H](Oc3ccccc3)[C@H](C)OC2=O)c1OCOC(C)=O [Compound 85]	80 to 100	0 to 80	80 to 100	80 to 100
COc1ccnc(C(=O)N[C@H]2COC[C@H](Oc3ccccc3)[C@@H](OCC(C)C)[C@H](C)OC2=O)c1OCOC(C)=O [Compound 86]	80 to 100	0 to 80	80 to 100	80 to 100
CCCO[C@H]1COC[C@H](NC(=O)c2nccc(OC)c2OCOC(C)=O)C(=O)O[C@@H](C)[C@@H]1Oc1ccccc1 [Compound 221]	80 to 100			80 to 100
CCCO[C@H]1[C@H](C)OC(=O)[C@@H](NC(=O)c2nccc(OC)c2OCOC(C)=O)COC[C@@H]1Oc1ccccc1 [Compound 222]	80 to 100			80 to 100
COc1ccnc(C(=O)N[C@H]2COC[C@H](Oc3ccc(F)cc3)[C@@H](Oc3ccc(F)cc3)[C@H](C)OC2=O)c1OC(C)=O [Compound 229, 2-(((3S,7S,8S,9S)-7,8-bis(4-fluorophenoxy)-9-methyl-2-oxo-1,5-dioxonan-3-yl)carbamoyl)-4-methoxypyridin-3-yl acetate]	80 to 100	0 to 80	80 to 100	80 to 100
COc1ccnc(C(=O)N[C@H]2COC[C@H](Oc3ccc(F)cc3)[C@@H](Oc3ccc(F)cc3)[C@H](C)OC2=O)c1OCOC(C)=O [Compound 231]	0 to 80	0 to 80	80 to 100	80 to 100
